From publication PMC4195943, “A novel small-molecule MRCK inhibitor blocks cancer cell invasion” (Cell Communication and Signaling : CCS, 2014)

Legend:
[1] = biological target: T1, MRCKβ (Homo sapiens, UniProt Q9Y5S2); assay: MLC phosphorylation in MDA-MB-231 cells expressing doxycycline-induced MRCKβ kinase domain (quantitative western blot); format: cell-based
T1 construct: The kinase domains of MRCKβ (1–473), ROCK1 (1–535) or ROCK2 (1–532) were gene synthesized; expressed in transfected cells; host or cells: MDA-MB-231 D3H2LN-Luc Tet3G cells, pTRE3G-MRCKβ (1–473)
T1 sequence (Q9Y5S2 1-473): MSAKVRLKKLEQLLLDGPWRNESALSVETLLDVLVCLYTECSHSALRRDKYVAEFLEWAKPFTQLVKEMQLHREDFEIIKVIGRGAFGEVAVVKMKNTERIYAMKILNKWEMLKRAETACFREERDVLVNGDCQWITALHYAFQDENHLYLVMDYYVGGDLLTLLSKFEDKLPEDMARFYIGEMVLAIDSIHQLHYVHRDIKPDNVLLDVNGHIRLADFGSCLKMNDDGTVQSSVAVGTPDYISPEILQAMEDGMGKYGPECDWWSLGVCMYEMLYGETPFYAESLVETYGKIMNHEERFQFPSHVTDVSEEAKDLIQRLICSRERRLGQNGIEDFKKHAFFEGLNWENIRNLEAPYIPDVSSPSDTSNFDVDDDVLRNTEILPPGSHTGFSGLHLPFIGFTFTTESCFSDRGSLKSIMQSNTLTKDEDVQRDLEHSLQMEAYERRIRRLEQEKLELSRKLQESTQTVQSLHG
Description: (A) MDA-MB-231 breast cancer cells expressing doxycycline inducible ROCK1, ROCK2 or MRCKβ kinase domains were established as indicated. Following treatment with doxycycline for 18 hours to induce expression, cell lysates were western blotted with antibodies as indicated.
MDA-MB-231 D3H2LN-Luc cells (Caliper LifeScience) were grown in MEM/EBSS (Hyclone) supplemented with 10% fetal bovine serum (FBS) (Gibco), 1 mM Sodium Pyruvate (Sigma) 2 mM L-glutamine (Gibco), 1× MEM non-essential amino acids (Gibco) plus penicillin-streptomycin (10 Units/ml and 10 μg/ml respectively) at 37°C in 5% CO2 in a humidified incubator. MDA-MB-231 D3H2LN-Luc TetOn MRCKβ, ROCK1 and ROCK2 selective cell lines were grown in the same media with 10% FBS replaced with 10% Tet System Approved FBS (Clontech).
The kinase domains of MRCKβ (1–473), ROCK1 (1–535) or ROCK2 (1–532) were gene synthesized (Genscript) and subcloned into pTRE3G (Clontech). MDA-MB-231 D3H2LN-Luc Tet3G cells were co-transfected with pTRE3G-MRCKβ (1–473), pTRE3G-ROCK1 (1–535) or pTRE3G-ROCK2 (1–532), together with a linear Pur^r-selection marker using Xfect transfection reagent according to manufacturer’s instructions. […] Each clone was treated with or without doxycycline (1 μg/ml) for 24 hours and kinase domain expression and activity determined by western blotting. […]

[2] = test system: SCC12 cells; assay: Organotypic collagen invasion of SCC12 cells; format: cell-based, human; settings: 2 μM, ten days
Description: (§1) All results are shown as mean ± standard error of n = 3 independent replicates. […] Readings were compared to the Alamar Blue metabolism in DMSO treated cells that were used as the viability standard of 100% for each replicate experiment. […] (F) Number of invading cells was determined in 5 random fields for each condition for each separate replicate experiment. All results are shown as mean ± standard error of n ≥ 3 independent replicates.
SCC12 invasion assays were performed essentially as described in [12]. HN-CAF cells were grown for 5 days in a Matrigel-collagen gel, covered with DMEM + 10%FBS medium, and allowed to remodel the matrix. The gel consisted of: 280 μL of DMEM + 10% FBS, 100 μL FBS, 20 μL 1 M Hepes pH 7.5 and approximately 200 μL of Matrigel (BD Biosciences, 354234), 400 μL of collagen type 1 (BD Biosciences, 354249) and 5×10^5 HN-CAF cells. Puromycin was subsequently added to the medium at 10 μg/ml for 3 days to remove HN-CAF cells. The gels were washed in SCC medium 3 times for 2 hours and SCC12 cells were plated on the surface of the gel and left to adhere overnight. […] The gels were fixed overnight in 4% PFA and 1% glutaraldehyde in PBS, washed in PBS and processed for histology.

[3] = test system: SCC12 cells; assay: Alamar Blue cell viability, SCC12 cells; format: cell-based, human; settings: 2 μM, 24 hours
Description: as §1
(§2) MDA MB 231 or SCC12 cells were plated in a 96 well plate and cultured for 24 hours. […] Pictures were taken every 3 hours and confluence was measured using the IncuCyte analysis software. AlamarBlue (Invitrogen, DAL 1025) was added to the medium and the cells were cultured for an additional day. Absorbances at 570 nm and at 600 nm were measured to assess cell health.

[4] = test system: MDA MB 231 cells; assay: Alamar Blue cell viability, MDA-MB-231 cells; format: cell-based, human; settings: 24 hours
Description: (A) MDA-MB-231 human breast cancer cells were plated in 96 well plates, then 24 hours later a ~800 μm scratch wound was created. […] All results are shown as mean ± standard error of n ≥ 4 independent replicates. […] Readings were compared to the Alamar Blue metabolism in DMSO treated cells that were used as the viability standard of 100% for each replicate experiment. All results are shown as mean ± standard error of 3 independent replicates.
MDA-MB-231 cells were plated at 30,000 cells per well in Image Lock 96 well plates (Essen BioScience) in 100 μL complete DMEM medium and after allowing cells to settle for 20 min were incubated overnight at 37°C in 5% CO2 in a humidified incubator. Matrigel (BD Biosciences) was thawed overnight at 4°C, diluted 1:1 with PBS and 100 μL pipetted over cells that had been scratched with the WoundMaker tool (Essen BioScience). Plates were incubated for 1 h, then appropriately diluted drugs added in 100 μL media to achieve final concentrations. Plates were scanned with an Incucyte Zoom (Essen BioSciences) according to manufacturer’s instructions at 3 hour intervals. Cell viability was determined with AlamarBlue (Invitrogen, DAL 1025), which was added to the medium and cells cultured for 6 hours. Absorbances at 570 nm and at 600 nm were measured to assess metabolic activity.
as §2

SMILES | inhibition of MLC phosphorylation induced by MRCKβ ([1]; 3 μM) | SCC12 invasion into three dimensional collagen matrix [2] | cell viability (Alamar Blue metabolism) versus DMSO [3] | effect on cell viability ([4]; 1 μM) | EC50 ([4]; Homo sapiens, MDA-MB-231, read-out: EC50, cell viability (Alamar Blue metabolism)) | inhibition of MRCKβ activity (MLC phosphorylation) ([1]; highest 30 μM concentration) | effect on cell viability ([4]; 10 μM)
O=C(Nc1cn[nH]c1-c1ccccn1)c1nn(C2CCNCC2)cc1Cl [BDP5290, 4-chloro-1-(4-piperidyl)-N-[5-(2-pyridyl)-1H-pyrazol-4-yl]pyrazole-3-carboxamide] | completely inhibited | profound effect | did not differ from DMSO standard values | no effect on cell viability | > 10 µM |  | 
C[C@@H](N)[C@H]1CC[C@H](C(=O)Nc2ccncc2)CC1 [Y27632, reference compound] |  | did not significantly affect | did not differ from DMSO standard values |  |  | ≤ 50% | no effect on cell viability
